Results reported in article PMC9162272 (Journal of Cardiovascular Pharmacology, 2022).
pIC50: −log10 of the molar value. Like-named read-outs stand apart in the source and are kept apart here.

Biological target: PDE-III (Homo sapiens, UniProt Q14432)
Experiment: Phosphodiesterase inhibition, purified PDE-III isozyme
Assay type: biochemical
Details: for PDE-IV Versus PDE-III, IC50 Ratio: selectivity of inhibition of PDE-III over PDE-IV
[1] = read-out: PDE-III IC50, PDE-III isolated from human platelets, 30°C, 30 minutes, [3H]-cAMP 0.1 µM and cAMP 0.1 µM, duplicates

Chain of PDE-III (Q14432 whole entry): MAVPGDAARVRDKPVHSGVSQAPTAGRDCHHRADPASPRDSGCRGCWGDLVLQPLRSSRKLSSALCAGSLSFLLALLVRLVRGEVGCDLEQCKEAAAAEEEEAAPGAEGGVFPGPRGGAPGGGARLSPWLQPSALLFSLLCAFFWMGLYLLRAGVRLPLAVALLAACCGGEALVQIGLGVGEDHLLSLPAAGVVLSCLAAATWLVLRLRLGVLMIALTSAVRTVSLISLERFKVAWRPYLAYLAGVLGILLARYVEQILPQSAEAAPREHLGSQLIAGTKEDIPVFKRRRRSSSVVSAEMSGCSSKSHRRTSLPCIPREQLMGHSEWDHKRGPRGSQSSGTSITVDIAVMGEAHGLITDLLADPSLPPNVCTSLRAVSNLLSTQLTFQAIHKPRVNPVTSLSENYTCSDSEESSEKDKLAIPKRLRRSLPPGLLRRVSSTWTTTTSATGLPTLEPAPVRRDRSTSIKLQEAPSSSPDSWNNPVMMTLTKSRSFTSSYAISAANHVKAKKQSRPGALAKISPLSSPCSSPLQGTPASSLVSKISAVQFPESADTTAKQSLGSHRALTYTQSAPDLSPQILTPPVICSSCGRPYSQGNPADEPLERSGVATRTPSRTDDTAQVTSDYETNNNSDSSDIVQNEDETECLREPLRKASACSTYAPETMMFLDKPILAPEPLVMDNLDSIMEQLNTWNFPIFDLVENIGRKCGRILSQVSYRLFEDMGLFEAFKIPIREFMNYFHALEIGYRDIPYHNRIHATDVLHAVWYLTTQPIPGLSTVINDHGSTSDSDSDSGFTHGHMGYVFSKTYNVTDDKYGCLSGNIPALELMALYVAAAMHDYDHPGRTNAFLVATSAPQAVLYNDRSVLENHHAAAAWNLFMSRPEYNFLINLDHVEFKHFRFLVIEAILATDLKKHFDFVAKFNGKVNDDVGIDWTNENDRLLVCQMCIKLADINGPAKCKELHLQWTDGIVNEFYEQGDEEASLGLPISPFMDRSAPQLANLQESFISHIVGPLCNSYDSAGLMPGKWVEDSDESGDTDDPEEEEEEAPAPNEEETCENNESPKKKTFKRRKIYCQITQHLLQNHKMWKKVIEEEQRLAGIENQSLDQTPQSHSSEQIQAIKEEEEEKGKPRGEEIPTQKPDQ

How did the pIC50 turn out when `C[C@@H]1CC(=O)NN=C1c1ccc(NN=C(C#N)C#N)cc1` [Levosimendan, levosimendan, reference compound] was run?
Its pIC50 is 8.68.

And the “PDE-IV Versus PDE-III, IC50 Ratio” value?
The value was 7619.

How did the pIC50 [1] turn out when `C[C@@H]1CC(=O)NN=C1c1ccc(N)cc1` [OR-1855] was run?
The pIC50 was 5.30.

And the “PDE-IV Versus PDE-III, IC50 Ratio” value?
The value was 100.

Which results are given for `CC(=O)Nc1ccc(C2=NNC(=O)C[C@H]2C)cc1` [OR-1896]?
pIC50 [1]: 7.03; PDE-IV Versus PDE-III, IC50 Ratio: 3043
